# pIC50: −log10 of the molar value. Several values for one entry are separate records, joined by “and”; a condition that tells them apart may be missing. Equal values may be shown once. Where a name gives a salt, the structure may show the parent alone.
# Experiments:
# [1] = test system: B.1.617.2 pseudovirus, entry into 293T-ACE2-TMPRSS2 cells; assay type: cell-based, SARS-CoV-2
# [2] = target: SARS-CoV-2 RBD (RBD Wuhan-1) binding to ACE2 (Severe acute respiratory syndrome coronavirus 2, UniProt P0DTC2)
# [3] = test system: SARS-CoV-2 variant pseudoviruses (D614G, P.1., B 1.1.7, B.1.429 and B1.351), entry into 293T-ACE2-TMPRSS2 cells; assay type: cell-based
# [4] = test system: B.1.617.1 pseudovirus, entry into 293T-ACE2-TMPRSS2 cells; assay type: cell-based, SARS-CoV-2; conditions: for pIC50: read-out: IC50, B.1.617.1 PV transduction assay
Structure (SMILES),Increase of IC50 for B.1.617.2 versus B.1.617.1 [1],Inhibition of binding of RBD Wuhan-1 to ACE2 (in words) [2],other results
CC(C)(S)C(=O)N[C@@H](CS)C(=O)O [Bucillamine],approximately two-fold,much stronger effects,–
NCCS [Cysteamine],3–15 fold,much stronger effects,"Entry of SARS-CoV-2 PV variants, cells pretreated [3]: not affected; Potency against variant PV entry (in words) [3]: less potent against the other variants tested; pIC50 [4]: ~3.00"
N[C@@H](CS)C(=O)O [L-cysteine],–,–,Inhibition of B.1.617.1 PV entry (in words) [4]: intermediate potency
"O=S(=O)(O)CCS [Mesna, 2-mercaptoethane sulfonate, sodium salt]",–,much stronger effects,"IC50, B.1.617.2 PV transduction assay [1]: did not achieve an IC50 value at the doses tested"
CC(C)(S)[C@@H](N)C(=O)O [Penicillamine],–,relatively weak inhibitory effects,–
"O=C(O)[C@@H](S)[C@@H](S)C(=O)O [Succimer, Dimercaptosuccinic acid]",–,relatively weak inhibitory effects,–
"CO[C@H]1O[C@H](CS)[C@H](O)[C@H](O)[C@H]1O [TDG, methyl 6-thio-6-deoxy-α-D-galactopyranoside]",3–15 fold,–,"Potency higher than compounds with similarly high pKa values (NAC, Mesna) [4]: 5 fold"
NCCCNCCS [WR-1065],3–15 fold,much stronger effects,"pIC50 ([1]; read-out: IC50, B.1.617.2 PV transduction assay): 2.22 and 1.82 to 2.30; pIC50 [4]: ~3.00"

# Source: paper PMC7743076 (bioRxiv, 2021)
